Data taken from BindingDB's records for doi:10.1002/cbic.201600513 (University of Florida, 2017).

Legend:
[1] = target: Carbonic anhydrase 2 (Homo sapiens, UniProt P00918); assay: CA Inhibition Assay
Text: (§1) CA-catalyzed CO2 hydration activity methods were published previously by Cornelio et al. as part of a larger series of benzenesulfonamide-based inhibitors with aryl substitutions in the para position of the benzene ring.

[2] = target: Carbonic anhydrase 12 (Homo sapiens, UniProt O43570); assay: CA Inhibition Assay
Sequence of Carbonic anhydrase 12 (O43570 whole entry): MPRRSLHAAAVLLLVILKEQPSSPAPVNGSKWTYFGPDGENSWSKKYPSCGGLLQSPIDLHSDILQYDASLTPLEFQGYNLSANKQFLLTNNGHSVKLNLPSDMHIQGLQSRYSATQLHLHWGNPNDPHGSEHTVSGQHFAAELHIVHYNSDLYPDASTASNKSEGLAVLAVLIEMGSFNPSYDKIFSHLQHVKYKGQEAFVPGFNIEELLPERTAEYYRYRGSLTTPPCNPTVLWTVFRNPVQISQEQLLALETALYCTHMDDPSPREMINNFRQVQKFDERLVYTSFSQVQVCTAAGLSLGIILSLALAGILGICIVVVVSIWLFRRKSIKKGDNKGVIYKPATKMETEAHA
Text: as §1

SMILES | Ki [1] | Ki [2]
NS(=O)(=O)c1ccc(-c2cccc(C=O)c2)cc1 [4-(3-formylphenyl)-benzenesulfonamide (4e)] | 2 nM | 0.6 nM
NS(=O)(=O)c1ccc(-c2ccccc2)cc1 [4-(phenyl)-bezenesulfonamide (4a)] | 0.8 nM | 
